Results: US20160311788A1, “Antifouling Compounds And Use Thereof” (National University of Singapore, priority 2008, published 2016)

Columns and labels:
[1] = system: marine bacteria strain S16; assay: disc inhibition assay, strain S16; format: cell-based, Pseudoalteromonas piscicida; conditions: Pseudoalteromonas piscicida, S16, 24 h; for zone of inhibition at 10 µg/disc: strain 16, 10 ug
Summary of the method: (§1)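 50 μg compound/6 mm disc (from 2 mg/ml DMSO stock); DMSO blank disc control. Lawn swabbed on Marine Agar from marine broth culture. Overnight, 35° C, dark. Readout: inhibition zone diameter (calipers), mean of 2 replicates.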

[2] = system: marine bacteria strain S18; assay: disc inhibition assay, strain S18; format: cell-based, Microbacterium esteraromaticum; conditions: Microbacterium esteraromaticum, S18, 24 h; for zone of inhibition at 10 µg/disc: strain 18, 10 ug
[3] = system: marine bacteria strain S1; assay: disc inhibition assay, strain S1; format: cell-based, Rhodovulum iodosum; conditions: Rhodovulum iodosum, S1; for zone of inhibition at 10 µg/disc: strain 1, 10 ug
Summary of the method: as §1

[4] = system: Pseudomonas putida (Strain KT2440; BCRC 10459); assay: disc inhibition assay, REF 4; format: cell-based
Description: (§2) 13 strains of marine bacteria were isolated from fouling communities located in the coastal waters around Singapore. These were characterized in earlier studies and reported in Teo et al. (U.S. patent application Ser. No. 11/265,833) and Choong et al (in prep). In addition, four reference bacterial strains were added tested: Escherichia coli (Strain K12, ATCC 15222), E. coli (strain DH5a), Pseudomonas aeruginosa (strain LMG 12228; ATCC 15692) and P. putida (strain KT2440; ATCC 47054). All the bacteria were also tested against five antibiotics: ampicillin (AMP), tetracycline (TETR), erythromycin (ERY), chloramphenicol (CHL) and streptomycin (STREP).
(§3) Disks comprising the compounds to be tested were prepared as follows. The antibacterial assay, the pure compounds were made up to a concentration of 2 mgml^−1 in DMSO. 25 μl of the stock was pipetted onto each 6 mm sterile disc (Macherey-Nagel #484000) to obtain 50 μg of compound per disc. Equivalent volume of DMSO was used inoculated for the control.
(§4) For all disk inhibition assays, bacterial cultures were grown in marine broth (Pronadisa #1217.00). Sterile swabs dipped into the cultures were used to inoculate Marine Agar plates with a bacterial lawn by smearing the culture over the surface. After inoculating the plates, discs with antibiotics, pharmaceuticals or control blanks were placed on each plate. Each concentration of antibiotic or pharmaceutical was tested with two replicates. After the disks were placed on the agar surface, plates were incubated overnight in the dark at 35° C. After incubation, plates were examined for zones of inhibition or clearing around control and treated disks. The diameter of any zone of clearing or inhibition was measured using Vernier calipers. There were two replicates per treatment, and the average was taken. There was no zone of inhibition around the control blanks in all the assays.

[5] = system: Escherichia coli (Strain K12; ATCC 15222); assay: disc inhibition assay, REF 1; format: cell-based
Description: as §2, §3, §4

[6] = system: marine bacteria strain S17; assay: disc inhibition assay, strain S17; format: cell-based, Gordonia terrae
Summary of the method: as §1

[7] = system: marine bacteria strain S4; assay: disc inhibition assay, strain S4; format: cell-based, Bacillus algicola; conditions: Guptibacillus algicola, S4, 24 h; for zone of inhibition at 10 µg/disc: strain 4, 10 ug
Summary of the method: as §1

[8] = system: marine bacteria strain S30; assay: disc inhibition assay, strain S30; format: cell-based, Bacillus borophilicus; conditions: Bacillus, S30, 24 h; for zone of inhibition at 10 µg/disc: strain 30, 10 ug
Summary of the method: as §1

[9] = system: Pseudomonas aeruginosa (strain LMG 12228; ATCC 15692); assay: disc inhibition assay, REF 3; format: cell-based
Description: as §2, §3, §4

[10] = system: Escherichia coli (Strain DH5a); assay: disc inhibition assay, REF 2; format: cell-based
Description: as §2, §3, §4

[11] = system: marine bacteria strain S29; assay: disc inhibition assay, strain S29; format: cell-based, Bacillus hwajinpoensis; conditions: Guptibacillus hwajinpoensis, S29, 24 h; for zone of inhibition at 10 µg/disc: strain 29, 10 ug
Summary of the method: as §1

[12] = system: marine bacteria strain S14; assay: disc inhibition assay, strain S14; format: cell-based, Vibrio probioticus; conditions: Vibrio, S14, 24 h
[13] = system: marine bacteria strain S28; assay: disc inhibition assay, strain S28; format: cell-based, Arthrobacter protophormial; conditions: Arthrobacter, S28, 24 h; for zone of inhibition at 10 µg/disc: strain 28, 10 ug
Summary of the method: as §1

[14] = system: marine bacteria strain S9; assay: disc inhibition assay, strain S9; format: cell-based, Bacillus algicola; conditions: Guptibacillus algicola, S9, 24 h; for zone of inhibition at 10 µg/disc: strain 9, 10 ug
Summary of the method: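 Marine broth cultures are swabbed over Marine Agar to form a lawn. Discs holding 50 μg compound, or DMSO alone, are placed on the surface. Plates are kept overnight at 35° C without light. Inhibition zone widths are then measured and the two replicates averaged.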

[15] = system: marine bacteria strain S3; assay: disc inhibition assay, strain S3; format: cell-based, Erythrobacter aquimaris
Summary of the method: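 Disc inhibition assay against a marine bacterial strain isolated from fouling communities in Singapore coastal waters. The strain was grown in marine broth and swabbed over Marine Agar plates as a lawn. 6 mm sterile discs loaded with compound in DMSO, or DMSO controls, were placed on the plates and incubated overnight in the dark at 35° C.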

[16] = system: marine bacteria strain S10; assay: disc inhibition assay, strain S10; format: cell-based, Halobacillus trueperi; conditions: Halobacillus trueperi, S10, 24 h; for zone of inhibition at 10 µg/disc: strain 10, 10 ug
Summary of the method: as §1

[17] = system: marine bacteria strain S27; assay: disc inhibition assay, strain S27; format: cell-based, Tenacibaculum lutimaris
Summary of the method: as §1

With `CC1(C)S[C@@H]2[C@H](NC(=O)[C@H](N)c3ccccc3)C(=O)N2[C@H]1C(=O)O` [AMP, Ampicillin, reference compound] the zone of inhibition at 2 µg/disc ([1]; strain 16, 2 ug) was 2 to 5 mm, the zone of inhibition at 10 µg/disc [1] was 2 to 5 mm and the zone of inhibition at 2 µg/disc ([2]; strain 18, 2 ug) was 2 to 5 mm. The zone of inhibition at 10 µg/disc [2] was 5 to 10 mm, the zone of inhibition at 2 µg/disc ([3]; strain 1, 2 ug) was 5 to 10 mm and the zone of inhibition at 10 µg/disc [3] was 5 to 10 mm. For the same compound, the zone of inhibition ([4]; REF 4, 2 ug) was “−”, the zone of inhibition ([4]; REF 4, 10 ug) was “+ (2-5 mm zone of inhibition around each disk was observed.)” and the zone of inhibition ([5]; REF 1, 2 ug) was “−”. For the same compound, the zone of inhibition ([5]; REF 1, 10 ug) was “+ (2-5 mm zone of inhibition around each disk was observed.)”, the zone of inhibition ([6]; strain 17, 2 ug) was “−” and the zone of inhibition ([6]; strain 17, 10 ug) was “−”. For the same compound, the zone of inhibition at 2 µg/disc ([7]; strain 4, 2 ug) was > 10 mm, the zone of inhibition at 10 µg/disc [7] was > 10 mm and the zone of inhibition at 2 µg/disc ([8]; strain 30, 2 ug) was > 10 mm. The zone of inhibition at 10 µg/disc [8] was > 10 mm, the zone of inhibition ([9]; REF 3, 2 ug) was “−” and the zone of inhibition ([9]; REF 3, 10 ug) was “−”. For the same compound, the zone of inhibition ([10]; REF 2, 2 ug) was “−”, the zone of inhibition ([10]; REF 2, 10 ug) was “+ (2-5 mm zone of inhibition around each disk was observed.)” and the zone of inhibition at 2 µg/disc ([11]; strain 29, 2 ug) was > 10 mm. The zone of inhibition at 10 µg/disc [11] was > 10 mm, the zone of inhibition at 2 µg/disc [12] was 2 to 5 mm and the zone of inhibition at 10 µg/disc [12] was 2 to 5 mm. It also gave a zone of inhibition at 2 µg/disc ([13]; strain 28, 2 ug) of 2 to 5 mm, a zone of inhibition at 10 µg/disc [13] of 5 to 10 mm and a zone of inhibition at 2 µg/disc ([14]; strain 9, 2 ug) of 2 to 5 mm. For the same compound, the zone of inhibition at 10 µg/disc [14] was > 10 mm, the zone of inhibition ([15]; strain 3, 2 ug) was “−” and the zone of inhibition ([15]; strain 3, 10 ug) was “−”. The zone of inhibition at 2 µg/disc ([16]; strain 10, 2 ug) was > 10 mm, the zone of inhibition at 10 µg/disc [16] was > 10 mm and the zone of inhibition at 2 µg/disc ([17]; Tenacibaculum lutimaris, S27, 24 h, strain 27, 2 ug) was 5 to 10 mm. For the same compound, the zone of inhibition at 10 µg/disc ([17]; Tenacibaculum lutimaris, S27, 24 h, strain 27, 10 ug) was > 10 mm.

`[H]/N=C(/N)N[C@H]1[C@H](O)[C@@H](O)[C@H](O[C@@H]2O[C@@H](C)[C@](O)(C=O)[C@H]2O[C@@H]2O[C@@H](CO)[C@H](O)[C@@H](O)[C@@H]2NC)[C@@H](N/C(N)=N\[H])[C@@H]1O` [STREP, Streptomycin, reference compound] was tested, and the zone of inhibition at 10 µg/disc [1] was 2 to 5 mm, the zone of inhibition at 25 µg/disc ([1]; strain 16, 25 ug) was 5 to 10 mm and the zone of inhibition at 10 µg/disc [2] was 2 to 5 mm. For the same compound, the zone of inhibition at 25 µg/disc ([2]; strain 18, 25 ug) was 5 to 10 mm, the zone of inhibition at 10 µg/disc [3] was 5 to 10 mm and the zone of inhibition at 25 µg/disc ([3]; strain 1, 25 ug) was > 10 mm. For the same compound, the zone of inhibition ([4]; REF 4, 10 ug) was “+ (2-5 mm zone of inhibition around each disk was observed.)”, the zone of inhibition ([4]; REF 4, 25 ug) was “++ (5-10 mm zone was observed.)” and the zone of inhibition ([5]; REF 1, 10 ug) was “+ (2-5 mm zone of inhibition around each disk was observed.)”. The zone of inhibition ([5]; REF 1, 25 ug) was “++ (5-10 mm zone was observed.)”, the zone of inhibition at 10 µg/disc ([6]; Gordonia terrae, S17, 24 h, strain 17, 10 ug) was 2 to 5 mm and the zone of inhibition at 25 µg/disc ([6]; Gordonia terrae, S17, 24 h, strain 17, 25 ug) was 5 to 10 mm. It also gave a zone of inhibition at 10 µg/disc [7] of 2 to 5 mm, a zone of inhibition at 25 µg/disc ([7]; strain 4, 25 ug) of 5 to 10 mm and a zone of inhibition at 10 µg/disc [8] of 2 to 5 mm. The zone of inhibition at 25 µg/disc ([8]; strain 30, 25 ug) was 5 to 10 mm, the zone of inhibition ([9]; REF 3, 10 ug) was “+ (2-5 mm zone of inhibition around each disk was observed.)” and the zone of inhibition ([9]; REF 3, 25 ug) was “++ (5-10 mm zone was observed.)”. For the same compound, the zone of inhibition ([10]; REF 2, 10 ug) was “−”, the zone of inhibition ([10]; REF 2, 25 ug) was “−” and the zone of inhibition at 10 µg/disc [11] was 2 to 5 mm. It also gave a zone of inhibition at 25 µg/disc ([11]; strain 29, 25 ug) of 5 to 10 mm, a zone of inhibition at 10 µg/disc [12] of 2 to 5 mm and a zone of inhibition at 25 µg/disc [12] of 2 to 5 mm. The zone of inhibition at 10 µg/disc [13] was 2 to 5 mm, the zone of inhibition at 25 µg/disc ([13]; strain 28, 25 ug) was 5 to 10 mm and the zone of inhibition at 10 µg/disc [14] was 2 to 5 mm. For the same compound, the zone of inhibition at 25 µg/disc ([14]; strain 9, 25 ug) was 2 to 5 mm, the zone of inhibition ([15]; strain 3, 10 ug) was “−” and the zone of inhibition ([15]; strain 3, 25 ug) was “−”. The zone of inhibition at 10 µg/disc [16] was 2 to 5 mm, the zone of inhibition at 25 µg/disc ([16]; strain 10, 25 ug) was 2 to 5 mm and the zone of inhibition ([17]; strain 27, 10 ug) was “−”. For the same compound, the zone of inhibition ([17]; strain 27, 25 ug) was “−”.
